SMILES | melting point
O=C(O)c1cc(-c2ccc(Cl)cc2)n(Cc2ccc(Cl)cc2Cl)n1 | 185 °C
COC(=O)CCc1cnoc1-c1ccc(OC)c(OC)c1 | 68 to 69 °C
CC(=O)On1c(C)csc1=S | 100 to 101 °C
CCOCn1cnc2c1c(=O)n(C)c(=O)n2C | 110 to 112 °C
CCCC(CC(=O)NC(=O)OC(C)(C)C)Nc1ccc(C)cc1 (stereo unspecified) | 63 to 64 °C
CCCCCCCOCCC(=O)Oc1ccc(N=Nc2ccc(OCCCCCC)cc2)cc1 | 69 °C
Oc1ccc(-c2cc3ccccc3cn2)cc1 | 218 to 219 °C
CCSCc1cnn(-c2c(Cl)cc(C(F)(F)F)cc2Cl)n1 | 53 to 54 °C
CC(C(=O)C=Cc1ccc(Cl)cc1)n1cncn1 (stereo unspecified) | 115 to 116 °C
CC(C)(C)OC(=O)NNC(=O)c1ncc(OCc2ccccc2)c(OCc2ccccc2)c1CCl | 170 to 171 °C
CC(=O)N(c1nc(N)no1)c1c(Cl)cccc1Cl | 164 to 165 °C
CC(C)Cc1ccc2nc(Cl)c(S(N)(=O)=O)n2n1 | 168 to 170 °C
COC(=O)C(C)(C)CC(=O)CCc1ccc(Cl)cc1 | 52 to 54 °C
Fc1cc(F)c(-c2c(Cl)nc3c(Cl)cnn3c2Cl)c(F)c1 | 128 °C
O=C(OCC1CCN(CC2CSc3ccc(F)cc3C2)CC1)c1ccc(F)cc1 (stereo unspecified) | 113 to 114 °C
COc1ccc(C2(C#Cc3ccc(N4CN=C(C)O4)s3)CCC(=O)CC2)cc1OC1CCCC1 | 94 to 95 °C
CC(C)(CO)c1cc(NC(=O)C(C)(C)S(=O)(=O)C2CCOCC2)on1 | 191 to 192 °C
Cc1ccc([N+](=O)[O-])c(Cl)c1C#N | 106 to 107 °C
O=C(O)c1c[nH]c2cc(C(F)(F)F)nn2c1=O | > 340 °C
O=[N+]([O-])c1cc(C(F)(F)F)ccc1S(=O)(=O)NCC(O)(Cn1cncn1)c1ccc(Cl)cc1Cl (stereo unspecified) | 97 to 105 °C
N#Cc1c2ccccc2c(-c2ccc(O)cc2)c2c1sc1ccccc12 | 307 to 309 °C
Oc1ccc(-c2cc3cc(Br)ccc3o2)cc1 | 228 to 229 °C
CCOc1cc(Oc2ccc(S(C)(=O)=O)nc2)cc2cc(C3=NCC(CCO)S3)[nH]c12 (stereo unspecified) | 147 to 148 °C
O=C(Nc1cccc(F)c1)Nc1ccnc(C(F)(F)F)c1 | 165 to 167 °C

SMILES | melting point
Cc1ccc(-c2nn(-c3cccc([N+](=O)[O-])c3)c(N)c2C(N)=O)cc1 | 237 to 238 °C
COC(=O)c1ccc(OCCNC(=O)C2Cc3ccccc3N2S(=O)(=O)c2ccc(-c3ccc(F)cc3)cc2)c(F)c1 (stereo unspecified) | 82 to 87 °C
C=CCC(C)(C)C(NC(=O)c1ccc(Cl)cc1)Nc1c(Nc2cccnc2)c(=O)c1=O (stereo unspecified) | 242 to 243 °C
CCCCCC(O)CNCCCCCCCCNCC(O)CCCCC (stereo unspecified) | 128 to 133 °C
O=C(O)CC[C@H](NC(=O)Nc1ccc(N(CCCl)CCCl)cc1)C(=O)O | 116 to 118 °C
O=Cc1ccc(O)c(CCl)c1 | 123 to 124 °C
N#Cc1ccc(-c2ccc(-c3cn4cc(C#N)ccc4n3)cc2)cc1 | 276 to 278 °C
COC(=O)NC(=N)c1ccc(-n2nc(C)n(-c3ccc(CCC(=O)OCC(C)C)cc3)c2=O)cc1 | 200 to 201 °C
COCc1c(C(C)=O)ncc2c1c1cc(OCc3ccccc3)ccc1n2S(=O)(=O)c1ccc(C)cc1 | 173 to 175 °C
CCCCCCCCCCCCc1nnn(C(C(N)=O)c2c(C(C)C)cccc2C(C)C)n1 (stereo unspecified) | 91 to 93 °C
OC1(C#Cc2cccc(Cl)c2)CCNC1 (stereo unspecified) | 153 to 160 °C
Cc1nnc(-c2ccc3ncn(-c4ccc(S(C)=O)cc4)c3c2)o1 (stereo unspecified) | 246 to 247 °C
COc1ccc(-c2nc(N3CCCC3)c3c(C)c(C#N)sc3n2)cc1 | 176 to 178 °C
CC(C)(O)P(=O)(O)CCCN | 243 to 244 °C
CSCC[C@H](N)C(=O)NC(=O)N(CCCl)N=O | 95 to 97 °C
O=C(O)CCCc1c(Cl)cccc1-c1ccccc1 | 74 to 76 °C
O=[N+]([O-])CCc1ccc2ccccc2c1 | 59 to 60 °C
O=c1cc(-c2ccncc2)nc2[nH]c3ccccc3n12 | 300 to 302 °C
CC(=O)n1nc(C)c(Oc2cc(F)cc(C#N)c2)c1C | 109 to 111 °C
CCCn1nnn(-c2cc(OC)c(C(F)(F)F)cc2Cl)c1=O | 82 to 83 °C
NC(=O)N1CCC2(CC1)CN(c1ccccc1[N+](=O)[O-])c1ccccc12 | 218 to 219 °C
CS(=O)(=O)OCCNc1ccc([N+](=O)[O-])cc1Cl | 114 to 115 °C
O=C(NCCO)c1cccc(-c2ncc3ccn(Cc4ccc(Cl)cc4Cl)c3n2)c1 | 194 to 195 °C
CCOC(=O)c1ccc(CSc2nnc(S)s2)cc1 | 114 to 115 °C

More lines, now with the values ahead:

melting point | SMILES
84 to 85 °C | CCOC(=O)C(=NNc1ccc(Cl)cc1)C(C)=O
284 to 286 °C | c1ccc(C(CCN2CC3CCC(CC3)C2)(c2ccccc2)c2nnn[nH]2)cc1
106 to 109 °C | CCCCCCCCCCCCCCOc1ccc(CC(=O)Nc2ccc(-n3ccnc3C)cc2)cc1
189 to 190 °C | O=Cc1ccc(-c2nnc(-c3ccccc3[N+](=O)[O-])o2)cc1
149 to 153 °C | O=CNC=Cc1cc(O)ccc1O
191 to 192 °C | COC1=CCc2cccc(NC(C)=O)c2C1
236 to 241 °C | CN(C(=O)CN1C(=O)c2ccccc2C1=O)c1ccc(Cl)c(CO)c1Cl
128 to 129 °C | C=C(C)COc1cc(C)c(NC=O)c(C)c1
72 °C | CCOC(=O)C(F)Sc1ccc(O)cc1 (stereo unspecified)
228 to 230 °C | CCCCc1nc(Cl)c(Cc2nnn[nH]2)n1Cc1ccc(C(=O)c2ccccc2C(=O)O)cc1
218 °C | CC(C)(C(=O)O)c1ccc(CCN2CCC(c3nc4ccccc4n3CCO)CC2)cc1
147 to 148 °C | Cc1cccc(C)c1N(CCCC(=O)N[C@@H](CO)C(=O)O)C(=O)c1ccc(Cl)cc1
243 to 245 °C | Cc1ccc(C=CC(=O)N[C@@H](Cc2ccc(OCCc3nc(-c4ccccc4)oc3C)c(Br)c2)C(=O)O)cc1
268 to 269 °C | Cc1[nH]c(=S)[nH]c1C(=O)c1ccccc1
108 to 109 °C | CC1NC(=Nc2ccccc2N2CCOCC2)N(CCO)C1C (stereo unspecified)
231 °C | COC(=O)Nc1nc2ccccc2n1C(=O)NC(=O)C(Cl)=C(Cl)Cl
90 to 94 °C | O=C(c1ccccc1)C1CCCS1(=O)=O (stereo unspecified)
125 to 127 °C | COc1cc(OC)c([C@@H]2CCCC[C@H]2O)c(OC)c1 (racemic)
151 to 153 °C | O=S1(=O)N=C2CCCN2c2ccc(S(=O)(=O)NC3CCCCC3)cc21
81 to 83.5 °C | CC(C)(C)C(O)(C=Cc1ccc(Cl)cc1)Cn1cncn1 (stereo unspecified)
80 to 82.5 °C | CSC(=C[N+](=O)[O-])NCCSCc1ncccc1Cl
143 to 144 °C | COc1ccc(CCc2ccc(NC(=O)C(=O)c3cccc(C(C)(C)C)c3O)cc2)cc1OC
43 °C | CC(=O)SCCCCC(=O)c1cccnc1
81 to 82 °C | Cc1oc(-c2ccccc2)nc1COc1cccc(CON)c1
216 to 218 °C | CSc1ccc2[nH]c(=O)oc(=O)c2c1
181 to 183 °C | COc1cc(Cc2cnc(NC(=O)Cc3ccccc3)nc2N)cc(OC)c1OC
162 to 165 °C | COc1ccc(CNC(=O)c2c(-c3ccncc3)c(-c3ccc(F)cc3)nn2C)cc1

melting point | SMILES
155 to 157 °C | C=Cc1cc(CNC(=O)C#Cc2ccc(C(C)(C)C)cc2)cc(F)c1NS(C)(=O)=O
112 to 119 °C | Fc1cc(F)c(-c2c(Cl)nc(Cl)n2-c2ccc(Cl)cc2)c(F)c1
102 to 105 °C | Cc1c(O)cccc1C(=O)N[C@@H](Cc1ccccc1)[C@H](O)C(=O)N1CSC(C)(C)[C@H]1C(=O)NCc1cccc(OC(F)(F)F)c1
154 to 155 °C | CSc1nc2ccc(Cl)cc2cc1C=O
176 °C | CC(CN1CCN(C(c2ccc(F)cc2)c2ccc(F)cc2)CC1)Cn1c(=O)[nH]c2ccccc21 (stereo unspecified)
144 to 148 °C | COc1ccc2c(c1)C(=O)N(c1ccc3c(ccn3C(C)C)c1)C2
173 to 174 °C | O=C1C(=O)N2c3c(cc(Cl)cc31)CCC2c1ccccc1 (stereo unspecified)
103 to 104 °C | CCn1c(=O)c2c(C)onc2n(C)c1=O
170 to 172 °C | Cn1c(=O)c(N)c(N)n(-c2ccc(Cl)cc2Cl)c1=O
117 to 122 °C | CC(C)N1CCN(S(=O)(=O)c2cccc(NC(=O)Nc3ccc(C(F)(F)F)cc3)c2)CC1
195 to 198 °C | c1ncn(Cc2nc(-c3ccc4c(c3)OCO4)c3cc4c(cc3n2)OCO4)n1
199 to 201 °C | CCCCCNC(=O)Nc1ccccc1C(=O)NC1CCN(C(c2ccccc2)c2ccccc2)CC1
118 to 120 °C | Cc1nn(CCO)c(C)c1Sc1cc(Cl)cc(Cl)c1
187 to 188 °C | Cc1ccn(-c2ccc(C(=O)N3Cc4ccnn4Cc4ccccc43)c(Cl)c2)n1
159 °C | OC1CCCc2nc3ccccc3c(NCc3ccccc3)c21 (stereo unspecified)
75 to 78 °C | CC(CC(=O)O)C(=O)c1ccc(F)cc1 (stereo unspecified)
208 °C | COc1cc(-c2nc3ccc(O)cc3n2Cc2ccccc2Br)cc(OC)c1OC
128 to 129 °C | C#CCN1C(=O)CN(C)c2ccc(-c3ncc(C(F)(F)F)cc3Cl)cc21
290 to 292 °C | Cc1ccc2c(c1)C=Cc1cc(C)ccc1C2c1cn(Cc2ccc(C(=O)O)o2)c(=O)[nH]c1=S
188 to 189 °C | Oc1ccc(-c2c3ccccc3cc3sc4ccccc4c23)cc1O
173 to 178 °C | CN1C(=O)C(NC(=O)Nc2ccccc2)C(=O)N(CC23CC4CC(CC(C4)C2)C3)c2ccccc21 (single isomer, unassigned; (-))
80.8 °C | Nc1cc(Cl)c(Sc2ccc(C(F)(F)F)cc2Cl)cc1F
90 to 93 °C | CC(=O)OCC1OC(Oc2ccsc2C(=O)c2ccc(OC(F)(F)F)cc2)C(OC(C)=O)C(OC(C)=O)C1OC(C)=O (stereo unspecified)
> 290 °C | O=c1c(-c2ccccc2)coc2cc(O)c(Cl)c(Cl)c12
279 to 281 °C | Cc1cc2c(-c3cccnc3)c(CC(=O)O)c(=O)oc2cc1Cl
137 to 138 °C | CN(C)C(N)=Nc1cc(F)ccc1N1CCOCC1
